Measurements as given in ChEMBL document CHEMBL1201862, “PubChem BioAssay data set” (2004).
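Each compound was tested at five concentrations against cells in 96-well plates for 48 hours. Abbreviation: GI50, concentration required for 50% inhibition of growth.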 Activity calls are given as the source filed them. No stated cut-off is given here; in the data, active = GI50 up to about 1.1 µM and inactive = higher.

Columns and labels:
Assay in all cases: NCI anticancer screen, dose series, 48 h
M14 = system: M14
HCC 2998 = system: HCC 2998
SK-MEL-2 = system: SK-MEL-2
NCI-H460 = system: NCI-H460
UO-31 = system: UO-31
XF498 = system: XF498
ACHN = system: ACHN
KM-20L2 = system: KM-20L2
OVCAR-3 = system: OVCAR-3
SK-MEL-28 = system: SK-MEL-28
SNB-78 = system: SNB-78
M19-MEL = system: M19-MEL
EKVX = system: EKVX
A549 = system: A549
SNB-75 = system: SNB-75
LXFL 529 = system: LXFL 529
HCT-116 = system: HCT-116
NCI-H23 = system: NCI-H23
SF-268 = system: SF-268
SN12C = system: SN12C
SW-620 = system: SW-620
A498 = system: A498
OVCAR-5 = system: OVCAR-5
IGROV-1 = system: IGROV-1
SK-OV-3 = system: SK-OV-3
OVCAR-4 = system: OVCAR-4
TK-10 = system: TK-10
CAKI-1 = system: CAKI-1
LOX IMVI = system: LOX IMVI
RXF 631 = system: RXF 631
HCT-15 = system: HCT-15
HOP-92 = system: HOP-92
SR = system: SR
HL-60 = system: HL-60
Malme-3M = system: Malme-3M
NCI-H522 = system: NCI-H522
DMS-114 = system: DMS-114
786-0 = system: 786-0
DLD-1 = system: DLD-1
RXF 393 = system: RXF 393
HOP-62 = system: HOP-62
SF-295 = system: SF-295
MOLT-4 = system: MOLT-4
SNB-19 = system: SNB-19
SF-539 = system: SF-539
K562 = system: K562
DMS-273 = system: DMS-273
U-251 = system: U-251
KM12 = system: KM12
UACC-62 = system: UACC-62
SK-MEL-5 = system: SK-MEL-5
UACC-257 = system: UACC-257
COLO 205 = system: COLO 205
HT-29 = system: HT-29
NCI-H226 = system: NCI-H226
CCRF-CEM = system: CCRF-CEM
OVCAR-8 = system: OVCAR-8
HOP-18 = system: HOP-18
RPMI-8226 = system: RPMI-8226

Measured: GI50

CCc1cccc(=O)c([O-])c1.CCc1cccc(=O)c([O-])c1.[Bi+3].[Cl-]
3.66 µM: HCT-15
inactive: M14 8.38 µM | HCC 2998 5.93 µM | SK-MEL-2 12.7 µM | NCI-H460 6.49 µM | UO-31 10 µM | XF498 2.38 µM | ACHN 8.17 µM | KM-20L2 10.5 µM | OVCAR-3 5.92 µM | SK-MEL-28 5.14 µM | SNB-78 7.19 µM | M19-MEL 6.98 µM | EKVX 13.8 µM | A549 8.97 µM | SNB-75 17.6 µM | LXFL 529 1.71 µM | HCT-116 7.45 µM | NCI-H23 13.5 µM | SF-268 5.21 µM | SN12C 10.2 µM | SW-620 3.23 µM | A498 15 µM | OVCAR-5 16.5 µM | IGROV-1 6.78 µM | SK-OV-3 21.4 µM | OVCAR-4 13.6 µM | TK-10 4.42 µM | CAKI-1 2.43 µM | LOX IMVI 7.53 µM | RXF 631 4.13 µM | HOP-92 12.9 µM | SR 3.71 µM | HL-60 2.54 µM | Malme-3M 1.79 µM | NCI-H522 1.79 µM | DMS-114 3.01 µM | 786-0 9.1 µM | DLD-1 2.91 µM | RXF 393 18.2 µM | HOP-62 11.6 µM | SF-295 6.31 µM | MOLT-4 2.22 µM | SNB-19 11 µM | SF-539 9.84 µM | K562 2.81 µM | DMS-273 7.53 µM | U-251 6.46 µM | KM12 12.4 µM | UACC-62 9.98 µM | SK-MEL-5 13.1 µM | UACC-257 6.58 µM | COLO 205 2.29 µM | HT-29 4.31 µM | NCI-H226 23.2 µM | CCRF-CEM 1.91 µM | OVCAR-8 2.96 µM | HOP-18 16.2 µM

CCOC(=O)CCC(=O)C1c2cccc(O)c2C(=O)c2c(O)cc(C)cc21 (stereo unspecified)
0.826 µM: HCT-15
active: HCC 2998 0.507 µM | SK-MEL-2 0.344 µM | NCI-H460 0.342 µM | UO-31 0.627 µM | XF498 0.211 µM | ACHN 0.993 µM | OVCAR-3 0.533 µM | SNB-78 0.542 µM | M19-MEL 0.637 µM | A549 0.695 µM | SNB-75 0.578 µM | LXFL 529 0.643 µM | HCT-116 0.805 µM | NCI-H23 0.962 µM | SF-268 0.542 µM | SW-620 0.948 µM | OVCAR-5 0.706 µM | IGROV-1 0.289 µM | SK-OV-3 0.865 µM | OVCAR-4 0.569 µM | LOX IMVI 0.729 µM | RXF 631 0.771 µM | SR 0.743 µM | HL-60 0.676 µM | NCI-H522 0.392 µM | DMS-114 0.296 µM | RXF 393 0.391 µM | HOP-62 0.656 µM | RPMI-8226 1.01 µM | SF-295 0.332 µM | SNB-19 0.327 µM | SF-539 0.226 µM | K562 0.429 µM | DMS-273 0.785 µM | U-251 0.252 µM | KM12 0.245 µM | UACC-62 0.434 µM | SK-MEL-5 0.676 µM | NCI-H226 0.719 µM | CCRF-CEM 0.519 µM | OVCAR-8 0.764 µM | HOP-18 0.515 µM
inactive: M14 1.4 µM | KM-20L2 1.83 µM | SK-MEL-28 1.48 µM | EKVX 1.82 µM | SN12C 1.79 µM | A498 2.28 µM | TK-10 1.87 µM | CAKI-1 1.79 µM | HOP-92 1.46 µM | Malme-3M 1.34 µM | 786-0 1.32 µM | DLD-1 1.21 µM | MOLT-4 2.1 µM | UACC-257 1.41 µM | COLO 205 2 µM | HT-29 2.47 µM

Cc1ccc(Oc2ccc(C)cc2[N+](=O)[O-])cc1
active: XF498 0.275 µM
inactive: M14 96.6 µM | HCC 2998 > 100 µM | SK-MEL-2 > 100 µM | NCI-H460 90.8 µM | UO-31 29.2 µM | ACHN 69.2 µM | KM-20L2 > 100 µM | OVCAR-3 55.8 µM | SK-MEL-28 65.6 µM | SNB-78 31.6 µM | M19-MEL 79.4 µM | EKVX 48.3 µM | A549 92.9 µM | SNB-75 22.9 µM | LXFL 529 43.6 µM | HCT-116 53.6 µM | NCI-H23 31.5 µM | SF-268 > 100 µM | SN12C > 100 µM | SW-620 > 100 µM | A498 > 100 µM | OVCAR-5 38.2 µM | IGROV-1 > 100 µM | SK-OV-3 > 100 µM | OVCAR-4 6.12 µM | TK-10 > 100 µM | LOX IMVI 40.1 µM | RXF 631 > 100 µM | HOP-92 28.6 µM | SR 33.7 µM | HL-60 26.4 µM | Malme-3M > 100 µM | DMS-114 28.4 µM | DLD-1 77.4 µM | RXF 393 26.5 µM | HOP-62 > 100 µM | RPMI-8226 57.8 µM | SF-295 > 100 µM | MOLT-4 37.4 µM | SF-539 > 100 µM | K562 38.5 µM | DMS-273 > 100 µM | U-251 25.8 µM | KM12 > 100 µM | UACC-62 > 100 µM | SK-MEL-5 29.8 µM | UACC-257 62.5 µM | COLO 205 > 100 µM | HT-29 40.7 µM | NCI-H226 57.5 µM | CCRF-CEM 36.7 µM | OVCAR-8 > 100 µM | HOP-18 > 100 µM
63.8 µM: HCT-15

C[C@]12CC[C@H](O)CC1=CC[C@@H]1C2CC[C@]2(C)C(=O)NC(=O)CC12 (stereo partly specified)
> 100 µM: HCT-15
inactive: M14 > 100 µM | HCC 2998 > 100 µM | SK-MEL-2 64.7 µM | NCI-H460 48.6 µM | UO-31 > 100 µM | XF498 > 100 µM | ACHN > 100 µM | KM-20L2 > 100 µM | OVCAR-3 > 100 µM | SK-MEL-28 > 100 µM | SNB-78 > 100 µM | M19-MEL > 100 µM | EKVX > 100 µM | A549 > 100 µM | SNB-75 > 100 µM | LXFL 529 74.3 µM | HCT-116 53.7 µM | NCI-H23 > 100 µM | SF-268 65.9 µM | SN12C 69 µM | SW-620 47.8 µM | A498 > 100 µM | OVCAR-5 > 100 µM | IGROV-1 96.8 µM | SK-OV-3 > 100 µM | OVCAR-4 > 100 µM | TK-10 > 100 µM | CAKI-1 > 100 µM | LOX IMVI 65.9 µM | RXF 631 76.7 µM | HOP-92 > 100 µM | SR 37.2 µM | HL-60 > 100 µM | Malme-3M 92.5 µM | NCI-H522 63 µM | DMS-114 > 100 µM | 786-0 55.5 µM | DLD-1 44.6 µM | RXF 393 > 100 µM | HOP-62 > 100 µM | RPMI-8226 23 µM | SF-295 > 100 µM | MOLT-4 30.6 µM | SNB-19 > 100 µM | SF-539 > 100 µM | K562 29 µM | DMS-273 56.9 µM | U-251 > 100 µM | KM12 35.5 µM | UACC-62 > 100 µM | SK-MEL-5 > 100 µM | UACC-257 > 100 µM | COLO 205 36.8 µM | HT-29 82.2 µM | NCI-H226 > 100 µM | CCRF-CEM 35.4 µM | OVCAR-8 45.6 µM | HOP-18 > 100 µM

O=P(c1ccccc1)(c1ccccc1)C1CC=C(c2ccccc2)C2(CCCC2)C1 (stereo unspecified)
inactive: M14 43.3 µM | SK-MEL-2 46.7 µM | NCI-H460 59.2 µM | UO-31 25.3 µM | XF498 65.5 µM | KM-20L2 33.7 µM | OVCAR-3 49.1 µM | SK-MEL-28 40.1 µM | SNB-78 > 100 µM | M19-MEL 43.7 µM | EKVX > 100 µM | A549 40.3 µM | SNB-75 30.7 µM | LXFL 529 > 100 µM | HCT-116 45 µM | NCI-H23 9.44 µM | SF-268 90.4 µM | SN12C 59.7 µM | SW-620 81.3 µM | A498 74.8 µM | OVCAR-5 29.7 µM | IGROV-1 42.7 µM | SK-OV-3 > 100 µM | OVCAR-4 29.6 µM | TK-10 72.3 µM | CAKI-1 40.6 µM | LOX IMVI 31.3 µM | RXF 631 40.1 µM | HOP-92 12.5 µM | HL-60 21.6 µM | Malme-3M 34.8 µM | NCI-H522 8.79 µM | DMS-114 34.4 µM | 786-0 98.9 µM | DLD-1 48.9 µM | RXF 393 9.23 µM | RPMI-8226 20.5 µM | SF-295 72.3 µM | MOLT-4 21.4 µM | SNB-19 48.6 µM | SF-539 > 100 µM | K562 31.4 µM | DMS-273 > 100 µM | U-251 94 µM | KM12 40.4 µM | UACC-62 37.6 µM | SK-MEL-5 71.8 µM | UACC-257 43.7 µM | COLO 205 22.8 µM | HT-29 59.2 µM | NCI-H226 44.9 µM | CCRF-CEM 33.1 µM | OVCAR-8 83.4 µM | HOP-18 25.6 µM
36.1 µM: HCT-15
